Like-named read-outs stand apart in the source and are kept apart here.
Assays:
TNF = test: PBMC assay: TNF cytokine levels in LPS-stimulated human PBMCs (MSD); type: cell-based; conditions: 100 ng/ml LPS for 6 hrs, TNF in supernatant via MSD
Method in brief: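 Cryopreserved healthy-donor human PBMCs (7.5×10^4 cells/well, RPMI + 10% FBS) were preincubated with 1:3 serially diluted compounds for 30 min at 37 °C. They were then stimulated with 100 ng/ml LPS (final) for 6 h. Supernatant TNF was measured by MSD, and EC50 values were derived.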

NLRP3 inflammasome = test: PBMC assay: IL-1β in LPS-stimulated human PBMCs (MSD); type: cell-based; conditions: read-out: IL1β IC50
Method in brief: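 Human PBMCs from healthy donors, Ficoll-isolated and cryopreserved, were plated at 7.5×10^4 cells/well in RPMI/10% FBS for 30 min at 37 °C. Cells were then stimulated with 100 ng/ml LPS (final) for 6 h. IL-1β and TNF in supernatants were quantified by MSD immunoassay.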

[1] = human PBMCs, 100 ng/ml LPS for 6 hrs, IL-1β in supernatant via MSD

SMILES | EC50 (TNF) [µM] | IC50 (NLRP3 inflammasome; [1]) [µM] | IC50 (NLRP3 inflammasome; Homo sapiens, 6 h) [µM]
CC(C)c1nn(CC(=O)Nc2ccc3nncn3n2)c(=O)c2cc(C3CC3)nn12 [Final Cpd 166, N-([1,2,4]triazolo[4,3-b]pyridazin-6-yl)-2-(2-cyclopropyl-7-isopropyl-4-oxopyrazolo[1,5-d][1,2,4]triazin-5(4H)-yl)acetamide] | > 10 | 0.044 | 
Cc1nn(CC(=O)N[C@H]2C[C@H](N(C)Cc3ccccc3)C2)c(=O)c2cc(C3CC3)nn12 [Final Cpd 52] | > 10 | 2.31 | 
CCc1nn(CC(=O)NC2CC2)c(=O)c2ccnn12 [Final Cpd 76, N-cyclopropyl-2-(7-ethyl-4-oxopyrazolo[1,5-d][1,2,4]triazin-5(4H)-yl)acetamide] | > 10 | > 10 | 
COc1c(NC(=O)Cn2nc(C(C)C)n3nc(C4CC4)cc3c2=O)ccnc1C [Final Cpd 102] | > 10 | 0.52 | 
CCc1nn(CC(=O)Nc2ccncn2)c(=O)c2cc(NC)nn12 [Final Cpd 20] | > 10 | 1.14 | 
COc1nccc(NC(=O)Cn2nc(C(C)C)n3nc(C4CC4)cc3c2=O)n1 [Final Cpd 132] | > 10 | 0.72 | 
CC(C)c1nn(CC(=O)Nc2ccc3nncn3c2)c(=O)c2cc(NCC(F)(F)F)nn12 [Final Cpd 42] | > 10 | 0.22 | 
CC(C)c1nn(CC(=O)N[C@H]2C[C@@](C)(O)C2)c(=O)c2cc(CC(F)(F)F)nn12 [Final Cpd 160] | > 10 | > 10 | 
CCN1CC[C@@H](O)[C@@H](NC(=O)Cn2nc(C(C)C)n3nc(C4CC4)cc3c2=O)C1 [Final Cpd 190, 2-(2-cyclopropyl-7-isopropyl-4-oxopyrazolo[1,5-d][1,2,4]triazin-5(4H)-yl)-N-((3S,4R)-1-ethyl-4-hydroxypiperidin-3-yl)acetamide] | > 10 | 0.054 | 
C=CC(C)c1nn(CC(=O)N[C@H]2C[C@@](C)(O)C2)c(=O)c2cc(C3CC3)nn12 (some centres unmarked) [Final Cpd 200] | > 10 | > 10 | 
CC(C)c1cc2c(=O)n(CC(=O)Nc3ccncn3)nc(C(C)C)n2n1 [Final Cpd 3] | > 10 | 0.28 | 
CC(C)c1cc2c(=O)n(CC(=O)Nc3ccncn3)nc(N(C)C)n2n1 [Final Cpd 147] | > 10 | 0.4 | 
CC(C)c1nn(CC(=O)Nc2ccncn2)c(=O)c2cc(N3CCC3)nn12 [Final Cpd 21] | > 10 | 2.75 | 
CC(C)c1nn(CC(=O)Nc2cc(C(F)F)[nH]n2)c(=O)c2cc(C3CC3)nn12 [Final Cpd 85] | > 10 | 0.34 | 
CC(C)c1nn(CC(=O)N[C@H]2CNCC[C@H]2O)c(=O)c2cc(C3CC3)nn12 [Final Cpd 188] | > 10 | 0.74 | 
C[C@]1(O)C[C@@H](NC(=O)Cn2nc(CC3CCOC3)n3nc(C4CC4)cc3c2=O)C1 (some centres unmarked) [Final Cpd 197] | > 10 | > 10 | 

SMILES | EC50 (TNF) [µM] | IC50 (NLRP3 inflammasome; [1]) [µM] | IC50 (NLRP3 inflammasome; Homo sapiens, 6 h) [µM]
CC(C)c1nn(CC(=O)N[C@H]2C[C@@](C)(O)C2)c(=O)c2cc(C3CC3)nn12 [Final Cpd 8] | > 10 | 0.24 | 
COc1ncc(NC(=O)Cn2nc(C(C)C)n3nc(C4CC4)cc3c2=O)cn1 [Final Cpd 107] | > 10 | 4.23 | 
COc1ncccc1NC(=O)Cn1nc(C(C)C)n2nc(C3CC3)cc2c1=O [Final Cpd 106] | > 10 | 0.71 | 
Cc1nn(CC(=O)NC2CCCC2O)c(=O)c2cc(C3CC3)nn12 (centres unmarked) [Final Cpd 65] | > 10 | 4.19 | 
CC(C)c1nn(CC(=O)Nc2cncnc2)c(=O)c2cc(C3CC3)nn12 [Final Cpd 115] | > 10 | 1.72 | 
CC(C)c1nn(CC(=O)NC2CC(C(C)(C)O)C2)c(=O)c2cc(C3CC3)nn12 (centres unmarked) [Final Cpd 88] | > 10 | 1.29 | 
CCc1cc2c(=O)n(CC(=O)Nc3ccnnc3)nc(C(C)C)n2n1 [Final Cpd 141] | > 10 | 0.42 | 
Cc1nn(CC(=O)N[C@H]2C[C@@H](OCc3ccccc3Cl)C2)c(=O)c2cc(C3CC3)nn12 [Final Cpd 53] | > 10 | > 10 | 
Cc1ncccc1NC(=O)Cn1nc(C(C)C)n2nc(C3CC3)cc2c1=O [Final Cpd 113] | > 10 | 0.85 | 
Cc1nn(CC(=O)NCc2ccc(F)cc2)c(=O)c2cc(C3CC3)nn12 [Final Cpd 47] | > 10 | > 10 | 
CCCc1cc2c(=O)n(CC(=O)Nc3ccncn3)nc(CC)n2n1 [Final Cpd 15] | > 10 | 2.4 | 
Cc1nnc2ccc(NC(=O)Cn3nc(C(C)C)n4nc(C5CC5)cc4c3=O)nn12 [Final Cpd 171] | > 10 | 0.22 | 
Cc1nn(CC(=O)NC2CC(c3ccc(O)cc3)C2)c(=O)c2cc(C3CC3)nn12 (centres unmarked) [Final Cpd 66] | > 10 | 3.55 | 
Cc1nn(CC(=O)N[C@@H]2COC[C@H]2N2CCCCC2)c(=O)c2cc(C3CC3)nn12 [Final Cpd 54] | > 10 |  | > 10
CC(C)c1nn(CC(=O)N[C@H]2C[C@@](C)(O)C2)c(=O)c2cc(C(O)C(F)(F)F)nn12 (some centres unmarked) [Final Cpd 158] | > 10 | > 10 | 
